This assay deals with unphosphorylated-BTK kinase domain (UP-BTK), GST-tagged human BTK (389-659aa) (Homo sapiens (Human), UniProt Q06187). The assay can be described thus: BTK kinase Lanthascreen binding assay. The settings on record: unphosphorylated-BTK kinase domain, 50 nM Tracer 236, 60 minutes, pIC50 = negative log of the IC50 in molar. A digest of the protocol:
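Tracer-displacement binding assay against the non-phosphorylated enzyme, read by Lanthascreen. Reported: pIC50.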
A general note: In TR-FRET formats the signal depends on donor and acceptor labels being close together.

Chain of unphosphorylated-BTK kinase domain (UP-BTK), GST-tagged human BTK (389-659aa) (Q06187 389-659): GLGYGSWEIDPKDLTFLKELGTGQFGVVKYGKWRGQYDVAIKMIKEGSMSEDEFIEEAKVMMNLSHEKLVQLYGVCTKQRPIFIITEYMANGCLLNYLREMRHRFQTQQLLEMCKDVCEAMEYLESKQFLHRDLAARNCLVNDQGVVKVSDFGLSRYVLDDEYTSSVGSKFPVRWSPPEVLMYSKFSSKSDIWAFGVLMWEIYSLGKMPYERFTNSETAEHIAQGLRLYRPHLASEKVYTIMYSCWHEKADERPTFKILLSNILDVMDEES

Turning to `C=CC(=O)N1CCC[C@@H](NC(=O)c2sc3nccc4c3c2NC(=O)N4c2cccc(OC3CCCC3)c2)C1` [Example 561, (R)—N-(1-Acryloylpiperidin-3-yl)-5-(3-(cyclopentyloxy)phenyl)-4-oxo-4,5-dihydro-3H-1-thia-3,5,8-triazaacenaphthylene-2-carboxamide], the “BTK_I_binding pIC50” value is given as 7.3.
Still for that read-out and setting: under `Cc1cc(OC(C)C)ccc1N1C(=O)Nc2c(C(=O)N[C@@H]3CCN(C(=O)/C=C/CN(C)C)C3)sc3nccc1c23` [Example 562, (R,E)-N-(1-(4-(Dimethylamino)but-2-enoyl)pyrrolidin-3-yl)-5-(4-isopropoxy-2-methylphenyl)-4-oxo-4,5-dihydro-3H-1-thia-3,5,8-triazaacenaphthylene-2-carboxamide] stands 6.7.
The same measure, in the same setting: under `C=CC(=O)N1CCC[C@@H](NC(=O)c2sc3nccc4c3c2NC(=O)N4c2cccc(-c3ccccc3C(F)(F)F)c2)C1` [Example 563, (R)—N-(1-Acryloylpiperidin-3-yl)-4-oxo-5-(2′-(trifluoromethyl)-[1,1′-biphenyl]-3-yl)-4,5-dihydro-3H-1-thia-3,5,8-triazaacenaphthylene-2-carboxamide] stands 7.0.
On the same count and under the same terms, under `Cc1cc(Oc2ccccc2)ccc1N1C(=O)Nc2c(C(=O)N[C@@H]3CCCN(C(=O)[C@H](C)CO)C3)sc3nccc1c23` [Example 564, N—((R)-1-((R)-3-Hydroxy-2-methylpropanoyl)piperidin-3-yl)-5-(2-methyl-4-phenoxyphenyl)-4-oxo-4,5-dihydro-3H-1-thia-3,5,8-triazaacenaphthylene-2-carboxamide] stands 7.2; under `C=CC(=O)N1CCC[C@@H](NC(=O)c2sc3nccc4c3c2NC(=O)N4c2cccc(OC(C)C)c2)C1` [Example 565, (R)—N-(1-Acryloylpiperidin-3-yl)-5-(3-isopropoxyphenyl)-4-oxo-4,5-dihydro-3H-1-thia-3,5,8-triazaacenaphthylene-2-carboxamide], 7.0; under `C=CC(=O)N1CCC[C@@H](NC(=O)c2sc3nccc4c3c2NC(=O)N4c2cccc(C(C)=O)c2)C1` [Example 566, (R)-5-(3-Acetylphenyl)-N-(1-acryloylpiperidin-3-yl)-4-oxo-4,5-dihydro-3H-1-thia-3,5,8-triazaacenaphthylene-2-carboxamide], 6.6.
In the case of `C=CC(=O)N1CC[C@@H](NC(=O)c2sc3nccc4c3c2NC(=O)N4c2ccnc(-c3ccccc3)c2)C1` [Example 567, (R)—N-(1-Acryloylpyrrolidin-3-yl)-4-oxo-5-(2-phenylpyridin-4-yl)-4,5-dihydro-3H-1-thia-3,5,8-triazaacenaphthylene-2-carboxamide], the “BTK_I_binding pIC50” value was determined as 7.4.
Same read-out and setting: the result for `C=CC(=O)N1CCC[C@@H](NC(=O)c2sc3nccc4c3c2NC(=O)N4c2cccc(OC(F)(F)F)c2)C1` [Example 568, (R)—N-(1-Acryloylpiperidin-3-yl)-4-oxo-5-(3-(trifluoromethoxy)phenyl)-4,5-dihydro-3H-1-thia-3,5,8-triazaacenaphthylene-2-carboxamide] reads 7.4; that for `C=CC(=O)N1CCC[C@@H](NC(=O)c2sc3nccc4c3c2NC(=O)N4c2cccc(C3CC3)c2)C1` [Example 569, (R)—N-(1-Acryloylpiperidin-3-yl)-5-(3-cyclopropylphenyl)-4-oxo-4,5-dihydro-3H-1-thia-3,5,8-triazaacenaphthylene-2-carboxamide], 7.0.
As to `CN(C)C/C=C/C(=O)N1CC[C@@H](NC(=O)c2sc3nccc4c3c2NC(=O)N4c2cccc(-c3ccccc3)c2)C1` [Example 570, (R,E)-5-([1,1′-Biphenyl]-3-yl)-N-(1-(4-(dimethylamino)but-2-enoyl)pyrrolidin-3-yl)-4-oxo-4,5-dihydro-3H-1-thia-3,5,8-triazaacenaphthylene-2-carboxamide], the IC50 (read-out: BTK_I_binding pIC50 (converted)) is 63.1 nM.

The record behind these values is patent publication US10800792B2, “Inhibitors of Bruton's tyrosine kinase and method of their use” (JANSSEN PHARMACEUTICA NV, priority 2015, dated 2020).
